# Experimental data published in patent US7208520B2, “Crystals of hydroxynorephedrine derivative” (Kissei Pharmaceutical Co., Ltd., priority 2001, dated 2007).
# Assay: Stability test: storage at 60° C., residual percentage by HPLC and changes in appearance
# Format: physicochemical
# Settings: for Residual percentage: determined by HPLC
# Description: Stability test was carried out under a condition of storage at 60° C. for crystalline form A obtained in Example 2, crystalline form B obtained in Example 3 and the amorphous form of compound (II) obtained in Reference Example 1. The residual percentage of test substances was determined by HPLC, and the changes in appearance were observed.
# [1] = storage at 60° C., 7 days, hydrochloride
SMILES,Changes in appearance (storage at 60° C.),"Appearance (storage at 60° C., 7 days)",Residual percentage [1],Appearance (storage period: Initial),Residual percentage (storage period: Initial),"Residual percentage (storage at 60° C., 7 days)"
"CCOC(=O)COc1cc(C)c(CCN[C@@H](C)[C@H](O)c2ccc(O)cc2)cc1C.Cl [Example 2, Crystalline form A of ethyl (−)-2-[4-[2-[[(1S,2R)-2-hydroxy-2-(4-hydroxyphenyl)-1-methyethyl]amino]ethyl]-2,5-dimethylphenoxy]acetate hydrochloride]",no changes in appearance,white,100,white,100,
"CCOC(=O)COc1cc(C)c(CCN[C@@H](C)[C@H](O)c2ccc(O)cc2)cc1C.Cl [Example 3, Crystalline form B of ethyl (−)-2-[4-[2-[[(1S,2R)-2-hydroxy-2-(4-hydroxyphenyl)-1-methyethyl]amino]ethyl]-2,5-dimethylphenoxy]acetate hydrochloride]",no changes in appearance,white,99.9,white,100,
"CCOC(=O)COc1cc(C)c(CCN[C@@H](C)[C@H](O)c2ccc(O)cc2)cc1C [compound 1, Ethyl (−)-2-[4-[2-[[(1S,2R)-2-hydroxy-2-(4-hydroxyphenyl)-1-methyethyl]amino]ethyl]-2,5-dimethylphenoxy]acetate, reference compound]",,tannish,,Color-,100,40.0
